One data set relates to 3T3-L1 adipocytes. To be noted: for Rel. A (Relative Activity) on 3T3-L1 adipocyte: relative to GIP. In outline: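 Compound-induced cAMP was measured in mature 3T3-L1 adipocytes after 60 min room-temperature exposure to a 10-concentration, 3-fold dilution series, followed by 60 min with kit detection reagent and curve fitting. Differentiation used IBMX/dexamethasone/insulin (5 days), insulin with 10 uM rosiglitazone (3 days), then 2–3 days in 10% FBS.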

Data set [1] is described as follows: Rat pharmacokinetics (PK) study. It counts as in vivo. To be noted: sc, male SD rats, subcutaneous 30 nmol/kg, plasma. On the procedure: 7˜9 weeks old male SD rats (220-250 g, 3 rats/group) were subjected to subcutaneous injection of 30 nmol/kg compound. After administration, blood was collected through the jugular vein at time points 0.25, 2, 4, 8, 12, 16, 24, 48, 96, 120, and 144 hours. The blood was processed to obtain plasma samples and analyzed using LC-MS/MS. The blood concentration time curve was analyzed using Phoenix WinNonlin version 6.3 software (non compartment model), and PK parameters and half-life were calculated.

A further data set deals with T1, Human GCG R (Homo sapiens, UniProt P47871).
T1 construct: expressed in transfected cells; host or cells: HEK-293
T1 sequence (P47871 26-477): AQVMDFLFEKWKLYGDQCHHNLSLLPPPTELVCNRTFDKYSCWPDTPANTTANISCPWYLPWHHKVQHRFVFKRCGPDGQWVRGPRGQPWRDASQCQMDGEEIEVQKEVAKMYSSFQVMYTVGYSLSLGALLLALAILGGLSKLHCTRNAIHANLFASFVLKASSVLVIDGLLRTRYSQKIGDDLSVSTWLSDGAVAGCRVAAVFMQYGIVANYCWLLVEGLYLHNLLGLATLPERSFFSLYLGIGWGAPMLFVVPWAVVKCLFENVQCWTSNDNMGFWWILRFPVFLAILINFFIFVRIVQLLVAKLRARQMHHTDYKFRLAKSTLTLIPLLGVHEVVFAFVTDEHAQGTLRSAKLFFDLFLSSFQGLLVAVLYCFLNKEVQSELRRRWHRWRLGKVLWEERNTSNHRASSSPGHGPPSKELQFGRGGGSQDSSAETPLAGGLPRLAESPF
In words: cAMP (HTRF) activity in HEK-293 cells stably overexpressing human GCG receptor. The conditions noted are these: EC50 of human GCG / EC50 of compound. It counts as cell-based. In outline:
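Cells resuspended in HBSS are incubated with compound for 60 min at room temperature, then with HTRF cAMP detection reagent for a further 60 min. Concentration-response fits give agonist EC50 values in nM.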

Here are results for 2 compounds from patent publication US20250129135A1, “Multi-Agonist and Use Thereof” (priority 2021, published 2025).

The term EC50 denotes the concentration that produces a half-maximal response. A lower EC50 goes with higher potency in that assay. Broadly, the AUC(0-t) is exposure summed from dosing to a finite time, without extrapolation to infinity. Read a high AUC(0-t) as more exposure. For orientation: Cmax means the peak of the concentration-time curve. One may read the Tmax as the time at which the peak concentration occurs. By half-life is commonly meant the time in which the quantity being followed falls by half. A low value points to rapid decline.

Starred links: 1 amine or outer side, 2 acyl side, 3 side chain; linkers in the order of their positions; H or OH if unused. Non-standard residues stand in square brackets, D forms with d. Residues, ends and D or L forms follow the SMILES beside them. Groups on a side chain read outwards from the residue. *: point of attachment. C20 diacid = O=C(O)CCCCCCCCCCCCCCCCCCC(=O)*; αMePhe(2-F) = C[C@](N)(Cc1ccccc1F)C(=O)O; γGlu = O=C(O)[C@H](CCC(=O)[*:2])N[*:1]; αMeL = CC(C)C[C@](C)(N)C(=O)O; AEEA = NCCOCCOCC(=O)O; Aib = CC(C)(N)C(=O)O

`CC[C@H](C)[C@H](NC(=O)[C@H](Cc1ccccc1)NC(=O)[C@H](C)NC(=O)C(C)(C)NC(=O)[C@H](CCC(N)=O)NC(=O)[C@H](C)NC(=O)[C@H](CCCCNC(=O)COCCOCCNC(=O)COCCOCCNC(=O)CC[C@H](NC(=O)CCCCCCCCCCCCCCCCCCC(=O)O)C(=O)O)NC(=O)[C@H](CCCCN)NC(=O)[C@H](CC(=O)O)NC(=O)[C@H](CC(C)C)NC(=O)[C@H](Cc1ccccc1)NC(=O)[C@@H](NC(=O)[C@H](CO)NC(=O)[C@H](Cc1ccc(O)cc1)NC(=O)[C@H](CC(=O)O)NC(=O)[C@H](CO)NC(=O)[C@@H](NC(=O)[C@](C)(Cc1ccccc1F)NC(=O)[C@@H](NC(=O)CNC(=O)[C@H](CCC(N)=O)NC(=O)C(C)(C)NC(=O)[C@@H](N)Cc1ccc(O)cc1)[C@@H](C)O)[C@@H](C)O)[C@@H](C)CC)C(=O)N[C@@H](CCC(=O)O)C(=O)N[C@@H](Cc1ccc(O)cc1)C(=O)N[C@@H](CC(C)C)C(=O)N[C@@H](CC(C)C)C(=O)N[C@@H](CCC(=O)O)C(=O)NC(C)(C)C(=O)N[C@@H](Cc1c[nH]cn1)C(=O)N1CCC[C@H]1C(=O)N[C@@H](CO)C(=O)N[C@@H](CO)C(=O)NCC(=O)N[C@@H](C)C(=O)N1CCC[C@H]1C(=O)N1CCC[C@H]1C(=O)N1CCC[C@H]1C(=O)N[C@@H](CO)C(N)=O` [Compound 18]: in the data set on 3T3-L1 adipocytes, the midpoint of the response, the EC50, lay at 1.99 nM and the “Rel. A (Relative Activity) on 3T3-L1 adipocyte” value turned out to be 191.34%. In addition, in data set [1], the AUC(0-t) was determined as 3.01 µM·h, the Cmax was found to be 62.8 nM, the Tmax worked out at 16 h and the half-life is 15.6 h.

For the compound `CC[C@H](C)[C@H](NC(=O)[C@H](Cc1ccccc1)NC(=O)[C@H](C)NC(=O)C(C)(C)NC(=O)[C@H](CCC(N)=O)NC(=O)[C@H](C)NC(=O)[C@H](CCCCNC(=O)COCCOCCNC(=O)COCCOCCNC(=O)CC[C@H](NC(=O)CCCCCCCCCCCCCCCCCCC(=O)O)C(=O)O)NC(=O)[C@H](CCCCN)NC(=O)[C@H](CC(=O)O)NC(=O)[C@H](CC(C)C)NC(=O)[C@](C)(CC(C)C)NC(=O)[C@@H](NC(=O)[C@H](CO)NC(=O)[C@H](Cc1ccc(O)cc1)NC(=O)[C@H](CC(=O)O)NC(=O)[C@H](CO)NC(=O)[C@@H](NC(=O)[C@](C)(Cc1ccccc1F)NC(=O)[C@@H](NC(=O)CNC(=O)[C@H](CCC(N)=O)NC(=O)C(C)(C)NC(=O)[C@@H](N)Cc1ccc(O)cc1)[C@@H](C)O)[C@@H](C)O)[C@@H](C)CC)C(=O)N[C@@H](CCC(=O)O)C(=O)N[C@@H](Cc1ccccc1)C(=O)N[C@@H](CC(C)C)C(=O)N[C@@H](CC(C)C)C(=O)N[C@@H](CCC(=O)O)C(=O)N[C@H](C(=O)NCC(=O)N1CCC[C@H]1C(=O)N[C@@H](CO)C(=O)N[C@@H](CO)C(=O)NC(C)(C)C(=O)N[C@@H](Cc1c[nH]cn1)C(=O)N1CCC[C@H]1C(=O)N1CCC[C@H]1C(=O)N1CCC[C@H]1C(=O)N[C@@H](CO)C(N)=O)[C@@H](C)O` [Compound 38] (H-Y[Aib]QGT[αMePhe(2-F)]TSDYSI[αMeL]LDKK([AEEA-AEEA-γGlu-C20 diacid])AQ[Aib]AFIEFLLETGPSS[Aib]HPPPS-NH2; N-terminus assumed), in the data set on 3T3-L1 adipocytes, it took 3.24 nM to reach a half-maximal effect (EC50) and the “Rel. A (Relative Activity) on 3T3-L1 adipocyte” value worked out at 117.42%. For the same compound, the “Human GCG R Rel. A (Relative Activity)” value on Human GCG R amounted to 83.82%. For the same compound, in data set [1], the AUC(0-t) worked out at 3.1 µM·h, the concentration peaked (Cmax) at 78.1 nM, the Tmax was found to be 16 h and the half-life is 15.7 h.
